Data: the supplement of paper PMC11451515

Tested on: NOMO1
Experiment: cell viability relative to DMSO control; higher = less cytotoxic
Conditions: 48 h
In short: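 Viability was expressed as a per-plate percentage of DMSO wells, with cell-free wells as background. Leukemia cells (NOMO1 or SEM at 500 cells/well, P12-Ichikawa at 1000 cells/well) were adapted for at least four passages in each medium and seeded in 1536-well plates (5 μl). Library compounds in DMSO were pin-dosed over an 11-point threefold series from 47 μM to 0.79 nM, and CellTiter-Glo One luminescence was read after 48 h at 37°C.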

[1] = HPLM + 10% dialyzed FBS, 0.000781 µM
[2] = HPLM + 10% dialyzed FBS, 0.00234 µM
[3] = HPLM + 10% dialyzed FBS, 0.00702 µM
[4] = HPLM + 10% dialyzed FBS, 0.0211 µM
[5] = HPLM + 10% dialyzed FBS, 0.0632 µM
[6] = HPLM + 10% dialyzed FBS, 0.19 µM
[7] = HPLM + 10% dialyzed FBS, 0.569 µM
[8] = HPLM + 10% dialyzed FBS, 1.71 µM
[9] = HPLM + 10% dialyzed FBS, 5.12 µM
[10] = HPLM + 10% dialyzed FBS, 15.4 µM
[11] = HPLM + 10% dialyzed FBS, 46.1 µM
[12] = RPMI 5 mM glucose + 10% FBS, 0.000781 µM
[13] = RPMI 5 mM glucose + 10% FBS, 0.00234 µM
[14] = RPMI 5 mM glucose + 10% FBS, 0.00702 µM
[15] = RPMI 5 mM glucose + 10% FBS, 0.0211 µM
[16] = RPMI 5 mM glucose + 10% FBS, 0.0632 µM
[17] = RPMI 5 mM glucose + 10% FBS, 0.19 µM
[18] = RPMI 5 mM glucose + 10% FBS, 0.569 µM
[19] = RPMI 5 mM glucose + 10% FBS, 1.71 µM
[20] = RPMI 5 mM glucose + 10% FBS, 5.12 µM
[21] = RPMI 5 mM glucose + 10% FBS, 15.4 µM
[22] = RPMI 5 mM glucose + 10% FBS, 46.1 µM
[23] = RPMI 5 mM glucose + 10% dialyzed FBS, 0.000781 µM
[24] = RPMI 5 mM glucose + 10% dialyzed FBS, 0.00234 µM
[25] = RPMI 5 mM glucose + 10% dialyzed FBS, 0.00702 µM
[26] = RPMI 5 mM glucose + 10% dialyzed FBS, 0.0211 µM
[27] = RPMI 5 mM glucose + 10% dialyzed FBS, 0.0632 µM
[28] = RPMI 5 mM glucose + 10% dialyzed FBS, 0.19 µM
[29] = RPMI 5 mM glucose + 10% dialyzed FBS, 0.569 µM
[30] = RPMI 5 mM glucose + 10% dialyzed FBS, 1.71 µM
[31] = RPMI 5 mM glucose + 10% dialyzed FBS, 5.12 µM
[32] = RPMI 5 mM glucose + 10% dialyzed FBS, 15.4 µM
[33] = RPMI 5 mM glucose + 10% dialyzed FBS, 46.1 µM

Structure (SMILES) | cell viability [1] [%] | cell viability [2] [%] | cell viability [3] [%] | cell viability [4] [%] | cell viability [5] [%] | cell viability [6] [%] | cell viability [7] [%] | cell viability [8] [%] | cell viability [9] [%] | cell viability [10] [%] | cell viability [11] [%] | cell viability [12] [%] | cell viability [13] [%] | cell viability [14] [%] | cell viability [15] [%] | cell viability [16] [%] | cell viability [17] [%] | cell viability [18] [%] | cell viability [19] [%] | cell viability [20] [%] | cell viability [21] [%] | cell viability [22] [%] | cell viability [23] [%] | cell viability [24] [%] | cell viability [25] [%] | cell viability [26] [%] | cell viability [27] [%] | cell viability [28] [%] | cell viability [29] [%] | cell viability [30] [%] | cell viability [31] [%] | cell viability [32] [%] | cell viability [33] [%]
CC(C)[C@@H](N(CCCN)C(=O)C1=CC=C(C)C=C1)C/2=N/C3=CC(=CC=C3C(=O)N2CC4=CC=CC=C4)Cl | 88.4 | 25.4 | 29.7 | 21.4 | 20.8 | 27.1 | 28 | 24.4 | 20 | 15.8 | 11.4 | 81.9 | 16 | 16.1 | 17.8 | 16.9 | 15.3 | 15.3 | 14.3 | 9.97 | 9.55 | 7.35 | 78.1 | 24 | 24.8 | 21.9 | 22.9 | 24.4 | 18.7 | 15.8 | 11.7 | 16.3 | 11.1
CN1[C@@H]2CC(OC(=O)[C@@H](CO)c3ccccc3)C[C@H]1[C@H]1O[C@H]12 (stereo partly specified) | 94.8 | 120 | 108 | 124 | 103 | 104 | 106 | 95.8 | 93.8 | 92.3 | 121 | 87.3 | 86.7 | 101 | 85.5 | 90.3 | 85.2 | 86.3 | 93.4 | 82.9 | 81.4 | 81.3 | 80.4 | 95.5 | 98.8 | 88.5 | 102 | 103 | 90.9 | 99.4 | 88.2 | 95.4 | 89.8
[NH2][Pt]1([NH2])[O]CC(=O)[O]1 | 96.9 | 109 | 98 | 101 | 96 | 108 | 97.8 | 106 | 85.9 | 91.3 | 88.3 | 94.5 | 83 | 99.1 | 85.2 | 82.4 | 93.8 | 98.7 | 92.9 | 93.8 | 80.5 | 84.3 | 92.7 | 86.9 | 90.7 | 98.1 | 93.2 | 89.1 | 87.8 | 92.5 | 83.9 | 77.8 | 104
C[C@@H](NC1=CC=CC=C1C(O)=O)C/2=C/C(=C\N3C(=O)/C=C(\N=C23)N4CCOCC4)C | 81.1 | 88.7 | 89.8 | 93.6 | 99.7 | 81.6 | 82.6 | 61.7 | 40.3 | 29.4 | 11.7 | 79.1 | 73.6 | 79.9 | 91.2 | 88.2 | 87.5 | 78 | 77.7 | 48.3 | 27.7 | 11.1 | 74.8 | 82.9 | 95.2 | 88.9 | 87.8 | 93.4 | 83 | 65.2 | 41.8 | 33.1 | 7.82
CC\1=C/C=C\C=[N]1[Pt](N)(Cl)Cl | 118 | 105 | 111 | 110 | 108 | 130 | 131 | 98.8 | 106 | 129 | 108 | 96.4 | 95.6 | 93.4 | 103 | 99.6 | 113 | 106 | 88.7 | 106 | 110 | 93.3 | 107 | 90.8 | 96.6 | 95.3 | 96.4 | 111 | 97.3 | 104 | 107 | 109 | 96.3
CC(=O)N(C)c1cccc(-c2ccnc3c(C(=O)c4cccs4)cnn23)c1 | 110 | 107 | 110 | 77.7 | 99.4 | 94.8 | 104 | 119 | 97.5 | 113 | 95.2 | 95.6 | 104 | 100 | 92.6 | 99.5 | 104 | 98 | 100 | 102 | 94.5 | 90.1 | 92.8 | 103 | 87.2 | 73.7 | 97.9 | 89 | 99.4 | 87.2 | 95.6 | 99.6 | 82.2
Cc1c(CCOc2ccc(C(=O)O)cc2)c2cc(Cl)ccc2n1C(c1ccccc1)c1ccccc1 | 119 | 121 | 111 | 116 | 109 | 107 | 115 | 123 | 105 | 95 | 73.8 | 108 | 103 | 108 | 108 | 112 | 97.9 | 94.8 | 74.8 | 98.7 | 99.9 | 93.6 | 111 | 124 | 125 | 120 | 116 | 106 | 98.6 | 115 | 113 | 101 | 97.3
CC1=CC=CC=C1N2\C(=N/C3=C(C(=CC=C3)C)C2=O)C[N]4C=NC5=C4N=CN=C5N |  |  |  |  |  |  |  |  |  |  |  | 107 | 106 | 122 | 108 | 110 | 106 | 107 | 94.4 | 69.2 | 72.9 | 67 | 108 | 109 | 109 | 97.1 | 113 | 92.6 | 94.8 | 80.8 | 67.2 | 64.5 | 61.1
N=C(CCSCc1csc(N=C(N)N)n1)N[S+](N)(=O)[O-] | 87 | 95.6 | 110 | 101 | 99.1 | 83.2 | 101 | 115 | 101 | 91.8 | 107 | 80.2 | 94.7 | 94.8 | 92 | 92.2 | 97.5 | 93.8 | 88.1 | 99.1 | 86.8 | 88.3 | 84.7 | 96 | 89.9 | 92.1 | 100 | 106 | 95.7 | 93.7 | 100 | 97 | 103
CC(N[C@H]1C[C@@H]1c1ccccc1)c1ccc2c(c1)OCCO2 (stereo partly specified) |  |  |  |  |  |  |  |  |  |  |  | 105 | 117 | 116 | 106 | 103 | 102 | 113 | 112 | 114 | 98.7 | 109 | 115 | 124 | 115 | 126 | 119 | 114 | 126 | 123 | 110 | 118 | 111
CC[C@H](CC#N)OC(=O)N[C@@H](C)c1cccc(NC(=O)Nc2ccc(-c3cnco3)c(OC)c2)c1 | 117 | 114 | 119 | 105 | 127 | 111 | 98.2 | 76.4 | 38.9 | 32.1 | 35.1 | 111 | 104 | 121 | 107 | 114 | 105 | 113 | 66.8 | 38.3 | 25.9 | 22.3 | 117 | 106 | 115 | 120 | 111 | 112 | 91 | 84 | 51.9 | 39.4 | 35.8
CC1(C)CC(=O)c2c(C(F)(F)F)nn(-c3ccc(C(N)=O)c(NC4CCC(O)CC4)c3)c2C1 (stereo unspecified) | 83.4 | 77.1 | 69 | 72.5 | 96.9 | 58.7 | 16 | 14.1 | 15.1 | 15.6 | 78.3 | 86.5 | 81.8 | 82.1 | 84.2 | 82.2 | 47.7 | 12.5 | 9.32 | 8.93 | 8.3 | 75.8 | 91.7 | 94.1 | 102 | 94.5 | 81.6 | 48.9 | 17.1 | 12.1 | 12.2 | 11.6 | 80.6
CC/1=C/C(=O)N(O)/C(=C1)C2CCCCC2 | 110 | 117 | 135 | 146 | 143 | 145 | 140 | 136 | 139 | 79 | 39.8 |  |  |  |  |  |  |  |  |  |  |  |  |  |  |  |  |  |  |  |  |  | 
CC1=C(/C=C/C(C)=C/C=C/C(C)=C/C=C/C=C(C)/C=C/C=C(C)/C=C/C2=C(C)CCCC2(C)C)C(C)(C)CCC1 | 115 | 110 | 108 | 104 | 104 | 107 | 100 | 98.2 | 118 | 92.9 | 98.2 | 119 | 112 | 110 | 111 | 108 | 108 | 99.3 | 101 | 113 | 102 | 95.5 | 101 | 113 | 129 | 108 | 112 | 111 | 107 | 117 | 114 | 95.1 | 90.3
COC(=O)Nc1nc2cc(C(=O)c3cccs3)ccc2[nH]1 | 106 | 88.5 | 113 | 81.8 | 43.6 | 34.2 | 32.3 | 44 | 57.7 | 57.3 | 53.1 |  |  |  |  |  |  |  |  |  |  |  | 98.2 | 113 | 129 | 101 | 53.6 | 28.1 | 33.7 | 36.1 | 36.2 | 40.5 | 42.2
CC1CCC(C(=O)N(c2cc(C#CC(C)(C)C)sc2C(=O)O)C2CCC(O)CC2)CC1 (stereo unspecified) | 108 | 98.7 | 111 | 113 | 96 | 92.9 | 98.7 | 85 | 78.9 | 50.1 | 53.5 | 87.2 | 98.8 | 91.5 | 90.9 | 85 | 87.9 | 88.6 | 87.7 | 78.1 | 75.1 | 59.8 | 97.5 | 97.1 | 89.7 | 98.3 | 96.5 | 86.3 | 93.2 | 81.7 | 79.9 | 65.2 | 46.1
CCc1cncnc1N1CCN(Cc2nc3cc(C(F)(F)F)ccc3[nH]2)CC1 | 105 | 114 | 114 | 98.5 | 108 | 97.7 | 97.6 | 94 | 107 | 92 | 64.2 | 95.4 | 87.8 | 99.5 | 93.1 | 90.8 | 93.4 | 90.1 | 90.1 | 81.3 | 79.9 | 74.7 | 95.8 | 82.6 | 93.8 | 100 | 95.3 | 85.5 | 88.8 | 97.4 | 88.6 | 75.8 | 70.3
